Measured values published in patent US20170319534A1, “EUTECTIC ANESTHETIC TOPICAL COMPOSITIONS” (Humco Holding Group, Inc., priority 2016, published 2017).

Assays:
[1] = 3-month/40° C. stability of topical anesthetics; format: physicochemical; conditions: for content as percent (in parentheses), 30 DAYS / content, 30 DAYS / content as percent (in parentheses), 60 DAYS / content, 60 DAYS / content as percent (in parentheses), 90 DAYS / content, 90 DAYS: 40° C.; for content as percent (in parentheses), INITIAL / content, INITIAL: 3-month/40° C. stability; for EXPIRY DATING: tentative expiry dating from 3-month/40° C. stability data
Method: The tables below show expiration dates for various topical anesthetics, including 3-month/40° C. stability data. Full-term controlled room temperature stability data are used to support the tentative expiry dating.

[2] = tested on: normal human 3D model of epidermal tissue
Excerpt: The remaining components shown in Example 1 above were reduced accordingly, such as by 30.5%. […] Standard Ointment includes 95% white petrolatum and 5% white wax. Permeation was measuring using Franz type diffusion cells and a normal human 3D model of epidermal tissue.

[3] = cited from earlier work

SMILES: CCCCNc1ccc(C(=O)OCCN(C)C)cc1 [Tetracaine]
- content as percent (in parentheses), 30 DAYS [1]: (102.5%)
- content, 30 DAYS [1]: 4.1% W/W
- content as percent (in parentheses), 60 DAYS [1]: (100.0%)
- content, 60 DAYS [1]: 4.0% W/W
- content as percent (in parentheses), 90 DAYS [1]: (100.0%)
- content, 90 DAYS [1]: 4.0% W/W
- content as percent (in parentheses), INITIAL [1]: (95.0%)
- content, INITIAL [1]: 3.8% W/W
- EXPIRY DATING [1]: ~2.0 YEARS
- Percutaneous Absorption Testing, 12 Hours [2]: 2%
- Percutaneous Absorption Testing, 24 Hours [2]: 2%
- Percutaneous Absorption Testing, 36 Hours [2]: 3%
- Percutaneous Absorption Testing, 48 Hours [2]: 3%
- duration of action after topical application [3]: up to 2 hours

SMILES: CCN(CC)CC(=O)Nc1c(C)cccc1C [Lidocaine]
- content as percent (in parentheses), 30 DAYS [1]: (103.0%)
- content, 30 DAYS [1]: 10.3% W/W
- content as percent (in parentheses), 60 DAYS [1]: (101.0%)
- content, 60 DAYS [1]: 10.1% W/W
- content as percent (in parentheses), 90 DAYS [1]: (104.0%)
- content, 90 DAYS [1]: 10.4% W/W
- content as percent (in parentheses), INITIAL [1]: (100.0%)
- content, INITIAL [1]: 10.0% W/W
- EXPIRY DATING [1]: ~2.0 YEARS

SMILES: CCOC(=O)c1ccc(N)cc1 [Benzocaine]
- content as percent (in parentheses), 30 DAYS [1]: (102.5%)
- content, 30 DAYS [1]: 20.5% W/W
- content as percent (in parentheses), 60 DAYS [1]: (102.0%)
- content, 60 DAYS [1]: 20.4% W/W
- content as percent (in parentheses), 90 DAYS [1]: (98.0%)
- content, 90 DAYS [1]: 19.6% W/W
- content as percent (in parentheses), INITIAL [1]: (99.0%)
- content, INITIAL [1]: 19.8% W/W
- EXPIRY DATING [1]: ~1.2 YEARS
- Percutaneous Absorption Testing, 12 Hours [2]: 100%
- Percutaneous Absorption Testing, 24 Hours [2]: 100%
- Percutaneous Absorption Testing, 36 Hours [2]: 100%
- Percutaneous Absorption Testing, 48 Hours [2]: 100%
- time to peak effect (ranking) ([3]; applied to mucous membranes): fastest

SMILES: CCCCOc1cc(C(=O)NCCN(CC)CC)c2ccccc2n1 [Dibucaine]
- duration of action after topical application [3]: 3 to 4 h
